Measurements reported in ChEMBL document CHEMBL6127060, “Bioisosteric replacement of the carboxylic acid group in Hepatitis-C virus NS5B thumb site II inhibitors: phenylalanine derivatives” (Eur J Med Chem, 2024).
pEC50, pIC50: −log10 of the molar value.

Assays:
Hepatitis C virus [1] = experiment: Antiviral activity against Hepatitis C virus genotype 1b infected in human Huh-7 cells assessed as inhibition of viral growth incubated for 3 days; assay type: functional, organism-based, Hepacivirus hominis; conditions: Huh-7, 72 h
[2] = Cytotoxicity against human Huh-7 cells assessed as cell viability; assay type: toxicity, cell-based
[3] = target: Hepatitis C virus NS5B RNA-dependent RNA polymerase (Hepatitis C virus, UniProt Q8JXU8); experiment: Inhibition of Hepatitis C virus NS5B polymerase; set-up: species or system Hepacivirus hominis
Hepatitis C virus [4] = experiment: Antiviral activity against Hepatitis C virus; assay type: functional, organism-based, Hepacivirus hominis

Sequence of Hepatitis C virus NS5B RNA-dependent RNA polymerase (Q8JXU8 whole entry): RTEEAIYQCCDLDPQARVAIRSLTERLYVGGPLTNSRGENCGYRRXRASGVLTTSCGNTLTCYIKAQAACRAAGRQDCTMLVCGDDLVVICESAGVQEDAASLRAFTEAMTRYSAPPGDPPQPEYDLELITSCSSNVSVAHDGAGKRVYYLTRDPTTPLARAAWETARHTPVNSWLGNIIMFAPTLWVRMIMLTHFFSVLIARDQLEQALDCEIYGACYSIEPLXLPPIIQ

| Compound | pEC50 (Hepatitis C virus [1]) | CC50 [2] [µM] | pIC50 [3] | pEC50 (Hepatitis C virus [4]) |
| --- | --- | --- | --- | --- |
| N/C(=N\O)C(Cc1ccccc1)N(Cc1cccc(F)c1)C(=O)c1ccc(Cl)cc1Cl (stereo not given) | < 4.30 | > 50 |  |  |
| O=C(O)[C@H](Cc1ccccc1)N(Cc1cccc(C(F)(F)F)c1)C(=O)c1ccc(Cl)cc1Cl |  |  | 5.77 |  |
| N/C(=N\O)C(Cc1ccccc1)N(Cc1cccc([N+](=O)[O-])c1)C(=O)c1ccc(Cl)cc1Cl (stereo not given) | 4.95 | 18.2 |  |  |
| N#Cc1cccc(CN(C(=O)c2ccc(Cl)cc2Cl)[C@@H](Cc2ccccc2)C(=O)O)c1 |  |  | 6.10 |  |
| O=C(O)[C@H](Cc1ccccc1)N(Cc1cccc([N+](=O)[O-])c1)C(=O)c1ccc(Cl)cc1Cl |  |  | 6.15 |  |
| N/C(=N\O)C(Cc1ccccc1)N(Cc1cccc(C(F)(F)F)c1)C(=O)c1ccc(Cl)cc1Cl (stereo not given) | 5.41 | 11 |  |  |
| O=C(c1ccc(Cl)cc1Cl)N(Cc1cccc(F)c1)C(Cc1ccccc1)c1noc(=O)[nH]1 (stereo not given) | < 4.30 | > 50 |  |  |
| N#CC(Cc1ccccc1)N(Cc1cccc(C(F)(F)F)c1)C(=O)c1ccc(Cl)cc1Cl (stereo not given) | < 4.30 | > 50 |  |  |
| O=C(c1ccc(Cl)cc1Cl)N(Cc1cccc([N+](=O)[O-])c1)C(Cc1ccccc1)c1noc(=S)[nH]1 (stereo not given) | < 4.30 | > 50 |  |  |
| CC1=CC[C@H](C(=O)N(c2cc(C#CC(C)(C)C)sc2C(=O)O)[C@H]2CC[C@](O)(CO[C@H]3CCOC3)CC2)CC1 [RADALBUVIR] | 7.28 | > 50 |  |  |
| O=C(c1ccc(Cl)cc1Cl)N(Cc1cccc(Br)c1)C(Cc1ccccc1)c1noc(=O)[nH]1 (stereo not given) | < 4.30 | > 50 |  |  |
| O=C(c1ccc(Cl)cc1Cl)N(Cc1cccc(C(F)(F)F)c1)C(Cc1ccccc1)c1noc(=S)[nH]1 (stereo not given) | < 4.30 | > 50 |  |  |
| O=C(c1ccc(Cl)cc1Cl)N(Cc1cccc([N+](=O)[O-])c1)C(Cc1ccccc1)c1noc(=O)[nH]1 (stereo not given) | < 4.30 | > 50 |  |  |
| O=C(c1ccc(Cl)cc1Cl)N(Cc1cccc(Br)c1)C(Cc1ccccc1)c1noc(=S)[nH]1 (stereo not given) | < 4.30 | > 50 |  |  |
| N#CC(Cc1ccccc1)N(Cc1cccc(Br)c1)C(=O)c1ccc(Cl)cc1Cl (stereo not given) | < 4.30 | > 50 |  |  |
| O=C(c1ccc(Cl)cc1Cl)N(Cc1cccc(F)c1)C(Cc1ccccc1)c1noc(=S)[nH]1 (stereo not given) | < 4.30 | > 50 |  |  |
| N#CC(Cc1ccccc1)N(Cc1cccc(F)c1)C(=O)c1ccc(Cl)cc1Cl (stereo not given) | 5.43 | > 50 |  |  |
| CC(C)(C)C(=O)OCn1c(C(Cc2ccccc2)N(Cc2cccc(C(F)(F)F)c2)C(=O)c2ccc(Cl)cc2Cl)noc1=S (stereo not given) | < 4.30 | > 50 |  |  |
| N/C(=N\O)C(Cc1ccccc1)N(Cc1cccc(Br)c1)C(=O)c1ccc(Cl)cc1Cl (stereo not given) | 5.20 | 16.1 |  |  |
| Cn1c(C(Cc2ccccc2)N(Cc2cccc(C(F)(F)F)c2)C(=O)c2ccc(Cl)cc2Cl)noc1=S (stereo not given) | 5.09 | > 50 |  |  |
| N#CC(Cc1ccccc1)N(Cc1cccc([N+](=O)[O-])c1)C(=O)c1ccc(Cl)cc1Cl (stereo not given) | 5.28 | > 50 |  |  |
| CC(C)(C)C(=O)OCn1c(C(Cc2ccccc2)N(Cc2cccc([N+](=O)[O-])c2)C(=O)c2ccc(Cl)cc2Cl)noc1=S (stereo not given) | < 4.30 | > 50 |  |  |
| O=C(c1ccc(Cl)cc1Cl)N(Cc1cccc(C(F)(F)F)c1)C(Cc1ccccc1)c1noc(=O)[nH]1 (stereo not given) | < 4.30 | 49.2 |  |  |
| CC1CCC(C(=O)N(C)c2ccc(Oc3ccccc3C(F)(F)F)cc2C(=O)O)CC1 (stereo not given) |  |  | 6.70 | 5.96 |
